In assay [1] the target is Phosphodiesterase, PDE1/PDE5 (Homo sapiens, UniProt O76074+P54750+Q01064+Q14123). In words: Inhibition of phosphodiesterase 1/5 isozyme (PDE1/5) mixture isolated from the guinea pig trachea. Details: species or system Cavia porcellus. The conditions noted are these: target entry is the homologue from another species.
Assay [2] is described as follows: In vitro inhibition of TNF-alpha release from human peripheral blood monocytes. The format is functional.
Assay [3] can be described thus: In vivo inhibition of LPS-stimulated TNF-alpha release in Wistar rats at 10 mg/kg oral dose. It counts as functional. The conditions noted are these: Rattus norvegicus.
Assay [4] deals with T1, Phosphodiesterase 4 (Homo sapiens, UniProt P27815+Q08499+Q07343+Q08493). In words: PDE4-related emetic activity in ferrets after intravenous administration at 40 mg/kg. The format is functional, organism-based. Details: dose 40 mg/kg. The conditions noted are these: Mustela putorius furo, target entry is the homologue from another species.
Assay [5] can be described thus: In vitro inhibition of TNF-alpha-release from human whole blood. The format is functional.
The next assay relates to Rattus norvegicus. In words: In vivo inhibition of antigen induced eosinophil recruitment in Brown-Norvway Rats at 10 mg/kg peroral dose. It counts as functional. The conditions noted are these: route oral.
A further assay deals with Phosphodiesterase 3 (Homo sapiens, UniProt Q14432+Q13370). As to the kind of experiment: Inhibition of phosphodiesterase 3 (PDE3) isolated from the dog aorta. It counts as protein assay, Canis lupus familiaris. The conditions noted are these: target entry is the homologue from another species.
Assay [6] concerns the target T1, Phosphodiesterase 4. In words: Inhibition of phosphodiesterase type 4 isozyme (PDE4) from the U937 human cell line. It counts as cell-based. The conditions noted are these: u-937.

Broadly, the IC50 is the concentration needed to halve the response being measured. The term ED50 denotes the dose at which the effect has come halfway, by size or by number of responders. Read a high ED50 as weaker potency.

Structures are written as SMILES.

`Nc1cc2c3c(c1)C(c1ccccc1)=N[C@@H](NC(=O)c1cccnc1)C(=O)N3CC2`: the IC50 in assay [1] is > 100000 nM; in assay [2], 340 nM; in assay [5], 1240 nM; at Phosphodiesterase 3 it was > 100000 nM; against Phosphodiesterase 4 [6], 270 nM. For the same compound, the ED50 in assay [3] was 2.8 mg/kg; with Rattus norvegicus it was 3.2 mg/kg. Also, the R+V at Phosphodiesterase 4 [4] is 0 90 min.

For the origin of these results see ChEMBL document CHEMBL1133554, “Synthesis, structure-activity relationships, and pharmacological profile of 9-amino-4-oxo-1-phenyl-3,4,6,7-tetrahydro[1,4]diazepino[6, 7,1-hi]indoles: discovery of potent, selective phosphodiesterase type 4 inhibitors” (J Med Chem, 2000).
